The results in this text go back to patent publication US5175283A, “Azetidin-2-one derivatives as serine protease inhibitors” (Bristol-Myers Squibb Company, priority 1992, dated 1992).

Broadly, the IC50 is the concentration needed to halve the response being measured.

Values joined by “and” are separate entries in the source; they are usually repeats but may differ in a detail not shown here. Identical values can stand only once. Counter-ions that a name gives are not always drawn. Like-named read-outs stand apart in the source and are kept apart here.

Test [1] addresses T1, human α-thrombin (Homo sapiens, UniProt P00734).
T1 construct: purified human α-thrombin dissolved in thrombin assay buffer
The test can be described thus: Enzyme assay for the inhibition of thrombin (s-2238 substrate). It is filed as biochemical. Particulars: for IC50: 3 min incubation of drug with enzyme, room temperature; for Thrombin k2 /ki (second order rate constant for inactivation of the enzyme): human α-thrombin, s-2238, pH 7.4, room temperature. As for the experimental part:
1. Enzyme Assays for the Inhibition of Thrombin The following reagents were used in these assays: Thrombin assay buffer: 145 mM NaCl, 5 mM KCl, 30 mM N-2-hydroxyethyl piperazine-N'-2-ethanesulfonic acid, pH 7.4, 1 mg/ml polyethylene glycol (PEG-8000). 3 mM D-Phe-Pip-Arg-p-nitroanilide (s-2238) in H2 O. 3 U/ml purified human α-thrombin dissolved in thrombin assay buffer. Inhibitors to be tested were dissolved in H2 O, methanol, or DMSO just prior to use. Assay Procedure To each well in a 96-well microtiter plate, 270 μl of assay buffer was added. Human α-thrombin (10 μl of 3 U/ml) was added, then 10 μl of inhibitor were added and mixed. The samples were incubated at room temperature for a defined period of time (3 min for initial IC50 determinations). The enzymic reaction was started with 10 μl of 3 mM s-2238 substrate and continued at room temperature. The change in optical density was measured at 405 nm. A kinetic microplate reader (Molecular Devices Corporation Vmax) was used to measure the change in optical density over time. Results are reported in Table 1 as IC50 values, i.e., the drug concentration in mole/liter which caused 50% inhibition of the enzyme activity (after incubation of the drug with the enzyme for 3 min). Alternatively, results are also reported in Table 1 expressed as k2 /ki which is the second order rate constant in per mole per minute for inactivation time of the enzyme [Kitz, et al., J. Biol. Chem., 237, 3245 (1962)].

The target of test [2] is T2, bovine pancreatic trypsin (Bos taurus, UniProt P00760).
T2 construct: purified bovine pancreatic trypsin dissolved in trypsin assay buffer
T2 sequence (P00760 24-246): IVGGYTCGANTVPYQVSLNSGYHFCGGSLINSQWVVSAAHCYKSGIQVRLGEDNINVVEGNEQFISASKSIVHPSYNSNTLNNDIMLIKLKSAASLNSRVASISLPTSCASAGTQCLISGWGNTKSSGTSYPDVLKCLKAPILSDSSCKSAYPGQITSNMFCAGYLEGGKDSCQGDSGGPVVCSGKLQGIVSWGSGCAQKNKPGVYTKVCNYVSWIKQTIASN
Kind of test: Enzyme assay for the inhibition of trypsin (Z-Val-Gly-Arg-pNA substrate). The class given is biochemical. The procedure: 2. Enzyme Assays for the Inhibition of Trypsin
(§1) The following reagents were used in these assays:
Trypsin assay buffer: 2 mM CaCl2, 50 mM Tris/Cl pH 8.0.
3 mM Z-Val-Gly-Arg-pNA (Chromzyme TRy) dissolved in H2 O.
6 μg/ml of purified bovine pancreatic trypsin dissolved in trypsin assay buffer.
Inhibitors to be tested were dissolved in H2 O, methanol or DMSO just prior to use.
To each well in a 96-well microtiter plate, 270 μl of assay buffer was added. Bovine trypsin (10 μl of 6 μg/ml) was added. Inhibitor (10 μl ) was added, mixed, and then incubated at room temperature for 3 min. The enzymic reaction was started with 10 μl of 3 mM Z-Val-Gly-Arg-pNA substrate. The change in optical density was measured at 405 nm at room temperature. A kinetic microplate reader (Molecular Devices Corporation Vmax) was used to measure the change in optical density over time.
Results are reported in Table 1 as IC50 values, i.e., the drug concentration in mole/liter which caused 50% inhibition of the enzyme activity (after incubation of the drug with the enzyme for 3 min).

In test [3] the target is T1, human α-thrombin. Kind of test: Concentration required for doubling thrombin clotting time in human plasma. It is filed as biochemical. Particulars: human citrated plasma, 10 U/ml human thrombin; read-out: ED50, drug concentration required to double clotting time. As for the experimental part: Procedure for Determining the Concentration Required for Doubling Thrombin Clotting Time--Clotting Time Assays The following reagents were used in these assays: Owren's Veronal Buffer: 125 mM NaCl, 28.4 mM sodium barbital, pH 7.35. Human citrated plasma obtained from human volunteers or citrated plasma obtained from IP-dosed animals (prepared as described below). 10 NIH Units/ml human α-thrombin in thrombin buffer for use with human plasma. […] The blood was centrifuged at […] (480×g) for 15 min at room temperature (using a Sorvall RT 6000B centrifuge). The plasma was removed, pooled, and aliquoted into small tubes which were stored frozen for later use. Clotting Time Measurement Clotting times were determined by pipetting 0.1 ml of Owren's buffer (pre-warmed 37° C.) and 0.1 ml of human or rat plasma into yellow sample cuvettes. For studies with human plasma 10 U/ml human thrombin (10 ml) was placed in the reservoir assembly station of the MLA 700. (Medical Laboratory Automation, Electra 700 Reservoir Assembly). For rat studies, the human thrombin concentration was 25 U/ml. The cuvettes were vortexed and then placed on the MLA 700 sample wheel. The coagulation timer (MLA 700) automatically dispenses 0.1 ml human thrombin into the sample in each cuvette. Detection of the fibrin clot was determined optically by the MLA 700. Studies were performed to determine the concentration of drug which caused a doubling of the clotting time in human plasma. From standard curves of thrombin activity added to the sample versus the clotting time, the concentration of drug which caused a doubling of the thrombin clotting time corresponded to inhibition of approximately 1/2 of the added thrombin clotting activity. Results are reported in Table 1 as ED50 values, i.e., the drug concentration required to double clotting time.

The subject of test [4] is Thrombin Induced Clotting Time. The test can be described thus: Thrombin induced clotting time ex vivo in plasma of i.p. dosed rats. Particulars: rat, 50 mg/kg i.p.; for Thrombin Induced Clotting Time (1:4 Control Plasma): plasma diluted 1:4 with control plasma; for Thrombin Induced Clotting Time, terminated samples / Thrombin Induced Clotting Time: undiluted plasma, per animal. As for the experimental part:
Procedure for Determining the Concentration Required for Doubling Thrombin Clotting Time--Clotting Time Assays
as §1
Owren's Veronal Buffer: 125 mM NaCl, 28.4 mM sodium barbital, pH 7.35.
Human citrated plasma obtained from human volunteers or citrated plasma obtained from IP-dosed animals (prepared as described below).
25 NIH Units/ml human α-thrombin in thrombin buffer for use with rat plasma.
Test compound was prepared just prior to dosing. Routinely the drugs are dissolved in water. Animals were dosed by i.p. injection.
After the appropriate time period, the animals were ether-anesthetized, and blood was drawn by cardiac puncture using 333 μl of 3.8% sodium citrate per 3 ml blood. After all of the samples were obtained, the tubes were centrifuged at 1,500 rpm for 15 min as described for the human blood samples.
Clotting Time Measurement
Clotting times were determined by pipetting 0.1 ml of Owren's buffer (pre-warmed 37° C.) and 0.1 ml of human or rat plasma into yellow sample cuvettes. For studies with human plasma 10 U/ml human thrombin (10 ml) was placed in the reservoir assembly station of the MLA 700. (Medical Laboratory Automation, Electra 700 Reservoir Assembly). For rat studies, the human thrombin concentration was 25 U/ml. The cuvettes were vortexed and then placed on the MLA 700 sample wheel. The coagulation timer (MLA 700) automatically dispenses 0.1 ml human thrombin into the sample in each cuvette. Detection of the fibrin clot was determined optically by the MLA 700.
In separate studies, two compounds, Compound XIX and Compound XI, were dosed 50 mg/kg I.P. to three rats in each study group. […] "Term" indicates "terminated sample" where a clot was unable to form after approximately 99 seconds. When this occurred, the animal plasma was diluted 1: 1 with control rat plasma and the sample tested again. If need, the animal plasma was diluted 1:4 and tested again.

Setting [5] is: 3 min incubation of drug with enzyme, room temperature, pH 8.0, read-out: Trypsin IC50.

For `CC(=O)OC1C(CCCNC(=N)N)C(=O)N1C(C)=O` (stereo not shown) [XX, 4-Acetyloxy-3-quanidinopropyl-1-acetyl-2-azetidinone hydrochloride salt], in test [1], the concentration for half-maximal inhibition (IC50) is 12 nM and the “Thrombin k2 /ki (second order rate constant for inactivation of the enzyme)” value (“Thrombin k2 /ki” below) is given as 4.2 × 10^7 m^-1 min^-1. The IC50 in test [2] was found to be 12 nM. In addition, the IC (2-fold clotting time) in test [3] was found to be 0.34 µM.
Take `CC(=O)N1C(=O)[C@@H](CCCNC(=N)N)[C@@H]1C(=O)N1CCCCC1` (relative stereo) [Compound XI, trans-4-(1-Piperidinocarbonyl)-3-guanidinooropyl-1-acetyl-2azetidinone hydrochloride salt]: the half-inhibitory concentration (IC50) in test [1] was 90 nM; in test [2] (setting [5]) it was 9 nM. Moreover, the “Thrombin k2 /ki” value in test [1] is given as 4.2 × 10^5 m^-1 min^-1. Besides, the IC (2-fold clotting time) in test [3] is recorded as 0.5 µM. For the same compound, in test [4] (0.5 hr. post dose, plasma diluted 1:1 with control rat plasma), the “Thrombin Induced Clotting Time (1:1 Control Plasma), terminated samples” value is listed as “term. ("terminated sample" where a clot was unable to form after approximately 99 seconds)”. The “Thrombin Induced Clotting Time (1:4 Control Plasma)” value is 18.0 and 17.7 and 32.4 in test [4] (0.5 hr. post dose, hydrochloride salt, 50 mg/kg, in s); 14.0 in test [4] (2 hr. post dose, in s). For the same compound, the “Thrombin Induced Clotting Time, terminated samples” value in test [4] (0.5 hr. post dose) and in test [4] (2 hr. post dose) was “term. ("terminated sample" where a clot was unable to form after approximately 99 seconds)” throughout. Besides, the “Thrombin Induced Clotting Time (1:1 Control Plasma)” value in test [4] (2 hr. post dose, plasma diluted 1:1 with control rat plasma, in s) is on record as 45.7. The “Thrombin Induced Clotting Time” value in test [4] (2 hr. post dose, hydrochloride salt, 50 mg/kg) is 17.2 s and 14.7 s; in test [4] (5 hr. post dose, hydrochloride salt, 50 mg/kg), 13.1 s and 11.4 s and 11.5 s. Moreover, the “Clotting time ex vivo, result in words” value in test [4] (three rats per group) is “prolonged clotting time”.
For `CN(C)c1cccc2c(S(=O)(=O)N3C(=O)[C@@H](CCCNC(=N)N)[C@@H]3C(=O)N3CCCCC3)cccc12` (relative stereo) [XII, trans-4-(1-Piperidinocarbonyl)-3-guanidinooropyl-1-[(5-dimethylamino)-1-naphthalenesulfonyl]-2-azetidinone hydrochloride salt], the 50% inhibitory concentration (IC50) is 10 nM in test [1] and 14 nM in test [2] (setting [5]). In addition, the “Thrombin k2 /ki” value in test [1] is reported as 2.8 × 10^6 m^-1 min^-1. Moreover, the IC (2-fold clotting time) in test [3] is reported as 30 µM.
As for `CC(=O)N1C(=O)[C@@H](CCCNC(=N)N)[C@@H]1S(=O)(=O)c1ccccc1` (relative stereo) [VI, trans-4-Phenylsulfonyl-3-guanidinopropyl-1-acetyl-2-azetidine hydrochloride salt], in test [1], the half-inhibitory concentration (IC50) worked out at 3.2 nM and the “Thrombin k2 /ki” value is reported as 3.0 × 10^6 m^-1 min^-1. Further, the IC50 in test [2] (setting [5]) was determined as 750 nM. The IC (2-fold clotting time) in test [3] is recorded as 15 µM.
In the case of `Cc1ccc(S(=O)(=O)N2C(=O)[C@@H](CCCNC(=N)N)[C@@H]2C(=O)N2CCCCC2)cc1` (relative stereo) [XIII, trans-4-(1-Piperidinocarbonyl)-3-guanidinooropyl-1-p-toluenesulfonyl-2-azetidinone hydrochloride salt], in test [1], half-maximal inhibition (IC50) required 3 nM and the “Thrombin k2 /ki” value was 4.5 × 10^7 m^-1 min^-1. Besides, the IC50 in test [2] (setting [5]) came to 120 nM. The IC (2-fold clotting time) in test [3] worked out at 80 µM.
Taken in the same sequence, the figures for `COC(=O)[C@H]1[C@H](CCCNC(=N)N)C(=O)N1C(C)=O` (relative stereo) [II, trans-4-Methoxycarbonyl-3-[3-quanidinopropyl)-1-acetyl-2-azetidinone hydrochloride salt] were 2 nM, 1.9 × 10^7 m^-1 min^-1, 40 nM and 1.25 µM.
Take `COC(=O)[C@H]1[C@H](CCCNC(=N)N)C(=O)N1S(=O)(=O)c1ccc(C)cc1.Cl` (relative stereo) [I, trans-4-Methoxycarbonyl-3-(3-guanidinopropyl)-1-p-toluenesulfonyl-2-azetidinone hydrochloride salt]: the concentration for half-maximal inhibition (IC50) in test [1] was 2 to 9 nM; in test [2] (setting [5]) it was 8 nM. Besides, in test [1], the “Thrombin k2 /ki” value is given as 1.2 × 10^8 m^-1 min^-1. The IC (2-fold clotting time) in test [3] was found to be 65 µM.
